The values that follow come from ChEMBL document CHEMBL1201862, “PubChem BioAssay data set” (2004).

Some test systems named below: UACC-62; RXF 393; RPMI-8226; IGROV-1; LOX IMVI; SK-MEL-2; EKVX; UO-31; SK-MEL-28; SN12C; A549; K562; UACC-257; NCI-H460; HCT-116; SK-MEL-5; KM12; ACHN; OVCAR-5; COLO 205.
Holding throughout (experiment): DTP human tumour cell line panel, 48 h

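Each compound was tested at five concentrations against cells in 96-well plates for 48 hours. The concentration for 50% growth inhibition is given as GI50.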 Calls of active or inactive are those of the source. Cut-off read from the data, not from the text of the source: active = GI50 up to about 1.1 µM and inactive = higher.

What is called GI50 is the concentration at which growth is held to half of that of the control. As to `CC[C@]12C=CCN3CC[C@@]4(c5cc(Br)c(OC)c([N+](=O)[O-])c5N(C)[C@H]4[C@@](O)(C(=O)OC)[C@@H]1OC(C)=O)[C@@H]32`, the GI50 in the test on UACC-62 was > 100 µM (inactive); in the test with RXF 393 it was 98.2 µM (inactive); in the test on RPMI-8226, 6.52 µM (inactive); in the test on IGROV-1, 24.1 µM (inactive); with LOX IMVI, 34.6 µM (inactive); in the test on SK-MEL-2, 74.1 µM (inactive). Besides, the GI50 was 29.6 µM (inactive) with EKVX; 89.5 µM (inactive) in the test on UO-31; 63.4 µM (inactive) with SK-MEL-28; 88.7 µM (inactive) in the test with SN12C; 39.8 µM (inactive) in the test with A549; 0.443 µM (active) with K562. Besides, the GI50 in the test on UACC-257 was 33.3 µM (inactive); with NCI-H460, 40.8 µM (inactive); in the test on HCT-116, 45.8 µM (inactive); in the test with SK-MEL-5 it was 36.2 µM (inactive); in the test on KM12 it was 47.6 µM (inactive); in the test with ACHN it was 62.4 µM (inactive). Moreover, the GI50 in the test on OVCAR-5 is > 100 µM (inactive); in the test on COLO 205, 27.8 µM (inactive).
